Source: patent US20120283228A1, “2alpha-Methyl and 2beta-Methyl Analogs of 19,26-Dinor-1alpha,25-Dihydroxyvitamin D3 and Their Uses” (WISCONSIN ALUMNI RESEARCH FOUNDATION, priority 2011, published 2012)
Entries after “also recorded” stand apart in the source; their conditions may differ.

Experiments:
vitamin D-deficient rats [1] = experiment: Bone calcium mobilization (serum calcium); assay type: in vivo, Sprague-Dawley rats; details: rats on low calcium diet (0.02%)
Description: (§1) Male, weanling Sprague-Dawley rats were placed on Diet 11 (0.47% Ca) diet +AEK for one week followed by Diet 11 (0.02% Ca) +AEK for 3 weeks. The rats were then switched to a diet containing 0.47% Ca for one week followed by two, weeks on a diet containing 0.02% Ca. Dose administration began during the last week on 0.02% calcium diet. Four consecutive ip doses were given approximately 24 hours apart. Twenty-four hours after the last dose, blood was collected from the severed neck and the concentration of serum calcium determined as a measure of bone calcium mobilization. The first 10 cm of the intestine was also collected for intestinal calcium transport analysis using the everted gut sac method.

[2] = target: T1, full-length recombinant rat vitamin D receptor (Rattus norvegicus, UniProt P13053)
T1 sequence (P13053 1-423): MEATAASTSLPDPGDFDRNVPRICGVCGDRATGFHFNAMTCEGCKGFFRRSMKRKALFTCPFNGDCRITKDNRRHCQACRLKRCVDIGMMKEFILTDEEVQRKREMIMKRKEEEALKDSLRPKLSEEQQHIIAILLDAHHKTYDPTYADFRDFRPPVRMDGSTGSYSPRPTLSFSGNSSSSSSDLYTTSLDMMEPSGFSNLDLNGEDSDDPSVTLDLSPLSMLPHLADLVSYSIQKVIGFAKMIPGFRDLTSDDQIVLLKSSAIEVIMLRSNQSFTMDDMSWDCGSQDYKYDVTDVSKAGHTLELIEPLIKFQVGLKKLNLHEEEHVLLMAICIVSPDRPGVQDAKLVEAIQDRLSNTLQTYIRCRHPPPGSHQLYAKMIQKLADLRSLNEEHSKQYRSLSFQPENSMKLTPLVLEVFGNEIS
Description: (§2) Full-length recombinant rat receptor was expressed in E. coli BL21 (DE3) Codon Plus RIL cells and purified to homogeneity using two different column chromatography systems. The first system was a nickel affinity resin that utilizes the C-terminal histidine tag on this protein. The protein that was eluted from this resin was further purified using ion exchange chromatography (S-Sepharose Fast Flow). Aliquots of the purified protein were quick frozen in liquid nitrogen and stored at −80° C. until use. For use in binding assays, the protein was diluted in TEDK50 (50 mM Tris, 1.5 mM EDTA, pH 7.4, 5 mM DTT, 150 mM KCl) with 0.1% Chaps detergent. The receptor protein and ligand concentration was optimized such that no more than 20% of the added radiolabeled ligand as bound to the receptor.
(§3) Radiolabeled and unlabeled ligands were added to 100 mcl of the diluted protein at a final ethanol concentration of ≦10%; mixed and incubated overnight on ice to reach binding equilibrium. The following day, 100 mcl of hydroxylapaptite slurry (50%) was added to each tube and mixed at 10-minute intervals for 30 minutes. The hydroxylapaptite was collected by centrifugation and then washed three times with Tris-EDTA buffer (50 mM Tris, 1.5 mM EDTA, pH 7.4) containing 0.5% Titron X-100. After the final wash, the pellets were transferred to scintillation vials containing 4 ml of Biosafe II scintillation cocktail, mixed and placed in a scintillation counter. Total binding was determined from the tubes containing only radiolabeled ligand.

[3] = test system: Human promyelocytic leukemia (HL60) cells; experiment: HL-60 differentiation (nitro blue tetrazolium reduction); assay type: cell-based
Description: Serial dilutions were prepared so that a range of drug concentrations could be tested without changing the final concentration of ethanol (≦0.2%) present in the cell cultures.
Human promyelocytic leukemia (HL60) cells were grown in RPMI-1640 medium containing 10% fetal bovine serus. The cells were incubated at 37° C. in the presence of 5% CO2.
HL60 cells were plated at 1.2×10^5 cells/ml. Eighteen hours after plating, cells in duplicate were treated with drug. Four days later, the cells were harvested and a nitro blue tetrazolium reduction assay was performed (Collins et al., 1979; J. Ex. Med. 149:969-974). The percentage of differentiated cells was determined by counting a total of 200 cells and recording the number that contained intracellular black-blue formazan deposits Verification of differentiation to monocytic cells was determined by measuring phagocytic activity (data not shown).

vitamin D-deficient rats [4] = experiment: Intestinal calcium transport (everted gut sac method); assay type: in vivo, Sprague-Dawley rats
Description: as §1

[5] = target: T1, full-length recombinant rat vitamin D receptor; experiment: biochemical; details: ability to compete with [3H]-1,25(OH)2D3 for binding to the vitamin D receptor, full-length recombinant rat VDR
Description: as §2, §3

[6] = test system: 24-hydroxylase (24Ohase) gene promoter; experiment: In vitro transcription assay in ROS 17/2.8 (bone) cells, luciferase reporter; assay type: cell-based
Description: Transcription activity was measured in ROS 17/2.8 (bone) cells that were stably transfected with a 24-hydroxylase (24Ohase) gene promoter upstream of a luciferase reporter gene (Arbour et al., 1998). Cells were given a range of doses. Sixteen hours after dosing the cells were harvested and luciferase activities were measured using a luminometer.
RLU=relative luciferase units.

EC50 ([3]; HL-60 cells, read-out: EC50, ability to promote HL-60 cell differentiation): 5 nM
Ki [5]: 0.2 nM
EC50 ([6]; ROS 17/2.8 cells, 24-hydroxylase promoter-luciferase, read-out: EC50, transcriptional activity in bone cells): 0.6 nM
Compound: CC(O)CCCC(C)C1CCC2C(=CC=C3CC(O)C(C)C(O)C3)CCCC21C (single isomer, unassigned) [NC-2]
mobilization of bone calcium at 7,020 pmol/day (vitamin D-deficient rats [1]; 7,020 pmol/day for 4 consecutive days): did not result, in mobilization of bone calcium
mobilization of bone calcium at 35,100 pmol/day (vitamin D-deficient rats [1]; 35,100 pmol/day for 4 consecutive days): without any substantial effect
activity in mobilizing calcium from bone / serum calcium levels (vitamin D-deficient rats [1]; all dosages tested): little, if any, activity
times less potent than 1,25(OH)2D3 in bone (bone calcium mobilization) (vitamin D-deficient rats [1]; 4 ip doses): more than 50 times
binding to the receptor as compared to 1,25(OH)2D3 [2]: bound equally well; also recorded: equivalent
HL-60 differentiation potency as compared to 1,25(OH)2D3 [3]: little difference
times more potent than 1,25(OH)2D3 on HL-60 differentiation ([3]; more potent than 1,25(OH)2D3): 4 times
intestinal calcium transport at 7,020 pmol/day (vitamin D-deficient rats [4]; 7,020 pmol/day, compared with 1,25(OH)2D3 at 780 pmol/day): some intestinal calcium transport activity, but still not to the same extent as 1,25(OH)2D3
intestinal calcium transport at 35,100 pmol/day (vitamin D-deficient rats [4]; 35,100 pmol/day, compared with 1,25(OH)2D3 at 780 pmol/day): some intestinal calcium transport activity, but still not to the same extent as 1,25(OH)2D3
logs less potent than 1,25(OH)2D3 in the intestine (vitamin D-deficient rats [4]; rats on low calcium diet (0.02%), 4 ip doses): approximately 5 log
transcriptional activity in bone cells as compared to 1α,25-dihydroxyvitamin D3 [6]: slightly less transcriptional activity
logs less transcriptional activity than 1α,25-dihydroxyvitamin D3 in bone cells ([6]; less than 1,25(OH)2D3): about one-half
